Measurements: patent publication US20040062739A1, “Use of carbohydrates to improve skin barrier function” (SOCIETE L'OREAL S.A., priority 2000, published 2004)

Tests used:
[1] = system: β-D-glucosidase in the stratum corneum; experiment: enzymatic test of stratum corneum glycosidases with PNP chromogenic substrate: β-glucosidase; assay type: biochemical; settings: for stimulation of β-D-glucosidase activity: different concentrations, FIG. 2
Procedure: (§1) In order to determine the nature and importance of the barrier effect of a carbohydrate derivative in accordance with the invention, the influence of O-octanoyl-6′-maltose on glycosidase activity was studied using the following enzymatic test: The assay was carried out in a 96 well plate. A mixture comprising the following was produced: 75μl of a 10 mM solution of specific chromogenic substrate coupled to paranitrophenol (PNP); 10 μl of 700 mM citrate buffer/200 mM sodium phosphate, pH 4.5; 55 μl of a 0.5 M solution of O-octanoyl-6′-maltose [α-D-glucopyannosyl-1-4-D-glucopyranose]; 40 μl of a solution of soluble glycosidases from the stratum corneum. This solution was obtained simply by scratching the forearm into a 70 mM sodium citrate buffer, pH 4.5 containing 1% of Tween 20 and eliminating cell debris by sequential filtering through a membrane with a pore size of 0.45 and of 0.22 μm. The measurements were carried out by quantifying the yellow coloration after incubation at 37° C. for a period in the range 1h30 and 48 hours.

[2] = system: thermostable recombinant glycosidases (Clonezyme); experiment: effect on thermostable recombinant glycosidases sold by Clonezyme; assay type: biochemical; settings: FIG. 3; increasing concentrations; 7 glycosidases tested
Procedure: O-octanoyl-6′-maltose was also tested for its effect on glycosidases sold by Clonezyme.

[3] = system: other glycosidases of the stratum corneum; experiment: enzymatic test of stratum corneum glycosidases with PNP chromogenic substrate: other glycosidases; assay type: biochemical; settings: FIG. 1; activity relative to value without compound; pH 4.5, 37° C.
Procedure: as §1

[4] = system: GLY-01; set-up: key: −: no activity; ε, +, ++: specific activity; ε, +, ++: specific activity; ε, +, ++: specific activity; settings: glycosidase sold by Clonezyme; cited from earlier work
[5] = system: GLY-04; set-up: key: −: no activity; ε, +, ++: specific activity; ε, +, ++: specific activity; ε, +, ++: specific activity; settings: glycosidase sold by Clonezyme; cited from earlier work
[6] = system: GLY-06; set-up: key: −: no activity; ε, +, ++: specific activity; ε, +, ++: specific activity; ε, +, ++: specific activity; settings: glycosidase sold by Clonezyme; cited from earlier work
[7] = system: GLY-05; set-up: key: −: no activity; ε, +, ++: specific activity; ε, +, ++: specific activity; ε, +, ++: specific activity; settings: glycosidase sold by Clonezyme; cited from earlier work
[8] = system: GLY-09; set-up: key: −: no activity; ε, +, ++: specific activity; ε, +, ++: specific activity; ε, +, ++: specific activity; settings: glycosidase sold by Clonezyme; cited from earlier work
[9] = system: GLY-08; set-up: key: −: no activity; ε, +, ++: specific activity; ε, +, ++: specific activity; ε, +, ++: specific activity; settings: glycosidase sold by Clonezyme; cited from earlier work
[10] = system: GLY-02; set-up: key: −: no activity; ε, +, ++: specific activity; ε, +, ++: specific activity; ε, +, ++: specific activity; settings: glycosidase sold by Clonezyme; cited from earlier work
[11] = system: GLY-10; set-up: key: −: no activity; ε, +, ++: specific activity; ε, +, ++: specific activity; ε, +, ++: specific activity; settings: glycosidase sold by Clonezyme; cited from earlier work
[12] = system: GLY-03; set-up: key: −: no activity; ε, +, ++: specific activity; ε, +, ++: specific activity; ε, +, ++: specific activity; settings: glycosidase sold by Clonezyme; cited from earlier work
[13] = system: GLY-07; set-up: key: −: no activity; ε, +, ++: specific activity; ε, +, ++: specific activity; ε, +, ++: specific activity; settings: glycosidase sold by Clonezyme; cited from earlier work

Row | SMILES | stimulation of β-D-glucosidase activity [1] | effect on recombinant glycosidases, first group of enzymes [2] | effect on recombinant glycosidases, second group of enzymes [2] | stimulation of recombinant glycosidases, third group of enzymes, of their base activity [2] | effect on the other glycosidases of the stratum corneum [3] | effect on β-glucosidase activity of the stratum corneum ([1]; FIG. 1, activity relative to value without compound, pH 4.5, 37° C.) | concentration giving maximum stimulation of β-D-glucosidase activity ([1]; increasing product concentrations, about 40 mM (1%)) | substrate specificity GLY-01 [4] | substrate specificity GLY-04 [5] | substrate specificity GLY-06 [6] | substrate specificity GLY-05 [7] | substrate specificity GLY-09 [8] | substrate specificity GLY-08 [9] | substrate specificity GLY-02 [10] | substrate specificity GLY-10 [11] | substrate specificity GLY-03 [12] | substrate specificity GLY-07 [13]
1 | CCCCCCCC(=O)OCC1OC(O)C(O)C(O)C1O [O-octanoyl-6-D-glucose] | a certain stimulation of activity, albeit small |  |  |  |  |  |  |  |  |  |  |  |  |  |  |  | 
2 | CCCCCCCC(=O)OC[C@H]1O[C@H](O[C@H]2[C@H](O)[C@@H](O)C(O)O[C@@H]2CO)[C@H](O)[C@@H](O)[C@@H]1O (stereo partly drawn) [O-octanoyl-6′-maltose, O-octanoyl-6′-maltose [α-D-glucopyranosyl-1-4-D-glucopyranose]] |  | insensitive | inhibited | up to 400% | either indifferent to the presence of O-octanoyl-6′-maltose or very slightly inhibited | only β-glucosidase had kinetics influenced | about 40 mM |  |  |  |  |  |  |  |  |  | 
3 | OC[C@H]1O[C@H](O[C@H]2[C@H](O)[C@@H](O)[C@H](O)O[C@@H]2CO)[C@H](O)[C@@H](O)[C@@H]1O [maltose] | Neither maltose alone nor glucose alone could stimulate β-D-glucosidase activity |  |  |  |  |  |  |  |  |  |  |  |  |  |  |  | 
4 | OC[C@H]1O[C@@H](O[C@H]2[C@H](O)[C@@H](O)[C@H](O)O[C@@H]2CO)[C@H](O)[C@@H](O)[C@H]1O [β-D-lactose] |  |  |  |  |  |  |  | − | − | + | − | − | − | + | − | ε | ε
5 | OC[C@H]1O[C@@H](O)[C@@H](O)[C@@H](O)[C@@H]1O [β-D-mannose] |  |  |  |  |  |  |  | − | − | + | − | + | − | ε | − | − | +
6 | O[C@@H]1[C@@H](O)[C@H](O)OC[C@H]1O [β-D-xylose] |  |  |  |  |  |  |  | ε | ε | ε | ε | ε | ε | + | − | − | ε
7 | C[C@@H]1O[C@H](O)[C@@H](O)[C@H](O)[C@@H]1O [β-L-fucose] |  |  |  |  |  |  |  | − | − | − | − | − | − | − | − | − | −
8 | CC(=O)NC1C(Oc2ccc([N+](=O)[O-])cc2)OC(CO)C(O)C1O [β-N-acetyl-D-glucosaminide] |  |  |  |  |  |  |  | − | − | − | − | − | − | − | − | − | −
